The source of these data is ChEMBL document CHEMBL1139229, “Design and synthesis of potent inhibitors of the malaria parasite dihydroorotate dehydrogenase” (J Med Chem, 2007).

Data set [1] has as its target T1, Dihydroorotate dehydrogenase (Plasmodium falciparum) (UniProt Q54A96).
T1 sequence (whole entry): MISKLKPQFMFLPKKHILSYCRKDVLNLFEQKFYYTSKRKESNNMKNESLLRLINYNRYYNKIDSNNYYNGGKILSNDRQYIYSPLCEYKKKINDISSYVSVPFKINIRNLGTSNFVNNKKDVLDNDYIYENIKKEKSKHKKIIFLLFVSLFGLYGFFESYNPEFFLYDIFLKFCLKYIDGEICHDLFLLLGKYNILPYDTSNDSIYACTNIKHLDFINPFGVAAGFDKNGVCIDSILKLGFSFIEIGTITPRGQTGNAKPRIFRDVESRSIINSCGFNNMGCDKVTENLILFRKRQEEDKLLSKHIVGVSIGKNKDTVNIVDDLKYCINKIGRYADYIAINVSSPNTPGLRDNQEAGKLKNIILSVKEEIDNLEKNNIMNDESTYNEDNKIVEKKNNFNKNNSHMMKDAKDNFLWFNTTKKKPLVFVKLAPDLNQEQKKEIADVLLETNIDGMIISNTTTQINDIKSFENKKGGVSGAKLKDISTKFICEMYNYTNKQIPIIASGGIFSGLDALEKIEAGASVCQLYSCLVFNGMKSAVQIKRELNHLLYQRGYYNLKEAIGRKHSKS
Briefly: Inhibition of recombinant Plasmodium falciparum DHODH at 10 uM.

In data set [2] the target is T2, Dihydroorotate dehydrogenase (Plasmodium falciparum, UniProt Q54A96).
T2 sequence (Q54A96 whole entry): T1 sequence (whole entry)
Briefly: (§1) Inhibition of recombinant Plasmodium falciparum DHODH.

Data set [3] deals with Dihydroorotate dehydrogenase (quinone), mitochondrial (Homo sapiens, UniProt Q02127). Briefly: Inhibition of human recombinant DHODH.
Chain of Dihydroorotate dehydrogenase (quinone), mitochondrial (Q02127 whole entry): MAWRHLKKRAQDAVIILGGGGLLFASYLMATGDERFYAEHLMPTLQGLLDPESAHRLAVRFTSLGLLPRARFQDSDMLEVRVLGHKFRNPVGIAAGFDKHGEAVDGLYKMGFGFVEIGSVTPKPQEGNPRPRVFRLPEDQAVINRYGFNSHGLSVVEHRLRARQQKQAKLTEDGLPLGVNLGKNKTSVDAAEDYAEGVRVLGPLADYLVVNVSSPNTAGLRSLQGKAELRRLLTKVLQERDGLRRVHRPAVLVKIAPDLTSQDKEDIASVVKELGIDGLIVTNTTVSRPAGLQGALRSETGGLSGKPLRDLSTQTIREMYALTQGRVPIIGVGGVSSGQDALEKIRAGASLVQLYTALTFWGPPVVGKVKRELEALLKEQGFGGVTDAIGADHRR
The nature of data set [4]: Selectivity for Plasmodium falciparum recombinant DHODH over human recombinant DHODH.
Another data set concerns Plasmodium falciparum. Briefly: Antimalarial activity against Plasmodium falciparum NF54 3D7 after 48 hrs. The format is functional, organism-based. To be noted: NF54/3D7, 48 h.
Data set [5] concerns T3, Dihydroorotate dehydrogenase (quinone), mitochondrial (Plasmodium falciparum (isolate 3D7)), Q08210 [F188A].
T3 sequence (whole entry): T1 sequence (whole entry) with F188A
Briefly: Inhibition of Plasmodium falciparum DHODH F188A mutant.

Compound in data set [6]: CCCCCCCCCCC1=C(C)C(=O)C(OC)=C(OC)C1=O
The description is as §1.

Compound in data set [7]: O=C1CC(C(=O)O)NC(=O)N1
Described as §1.

Substitutions are numbered along the chain they refer to. The source made the active and inactive calls. The rule behind the calls is not given here.

As to `CCOC(=O)C(=CNc1ccc2[nH]ncc2c1)C(=O)OCC`, the inhibition in data set [1] was more than 10%. Moreover, the values for the IC50 in data set [2] and in data set [3] were 27.8 µM and 123 µM, respectively. In addition, the Ki in data set [2] came out at 3.2 µM; in data set [3], 15.1 µM. The Selectivity ratio in data set [4] was 5.

Consider `CCOC(=O)C(=CNc1ccc2[nH]cnc2c1)C(=O)OCC`, for which the inhibition in data set [1] was more than 10%. The IC50 was 349 µM in data set [2] and more than 500 µM in data set [3]. Besides, in data set [2], the inhibition constant Ki was 40.2 µM.

In the case of `CCOC(=O)C(=CNc1cccc(-c2ccccc2)c1)C(=O)OCC`, the results for the half-inhibitory concentration (IC50) in data set [2] and in data set [3] were 86.7 µM and 104 µM, respectively. The Ki amounted to 10 µM in data set [2] and 12.8 µM in data set [3]. For the same molecule, in data set [4], the Selectivity ratio came out at 1.

`CCOC(=O)/C(C#N)=C\Nc1ccc2c(c1)c1ccccc1n2CC`: the inhibition in data set [1] was more than 10%. The IC50 in data set [2] is 0.44 µM; in data set [3], 491 µM; with Plasmodium falciparum it was 4 µM. For the same molecule, the Ki in data set [2] is 0.05 µM; in data set [3], 60.4 µM. The Selectivity ratio in data set [4] came out at 1210.

Turning to `CCOC(=O)/C(C#N)=C\Nc1cccc(-c2ccccc2)c1`, in data set [3], the IC50 was 220 µM and the Ki amounted to 0.027 µM. For the same molecule, the Selectivity ratio in data set [4] was found to be 10.

As for `CCOC(=O)C(=CNc1ccc2sc3ccccc3c2c1)C(=O)OCC`, the inhibition in data set [1] is more than 10%. In addition, the IC50 is 0.16 µM in data set [2], 29.6 µM in data set [3] and 1.8 µM in the data set with Plasmodium falciparum. Also, the Ki was 0.02 µM in data set [2] and 3.63 µM in data set [3]. Besides, the Selectivity ratio in data set [4] was 182.

For the molecule `CCOC(=O)C(=CNc1ccc(-c2ccccc2)cc1)C(=O)OCC`, the IC50 in data set [2] and in data set [3] was more than 500 µM each time.

On to `CCOC(=O)C(=CNc1ccc(C)cc1)C(=O)OCC`, for which the inhibition in data set [1] is more than 10%. Besides, in data set [2], the IC50 stood at 40 µM and the inhibition constant (Ki) stood at 4.6 µM. Besides, in data set [3], the IC50 was 146 µM and the Ki is 17.9 µM. Besides, the Selectivity ratio in data set [4] turned out to be 4.

Regarding `Cc1cc(Br)ccc1NC(=O)c1ccc2ccccc2c1`, in data set [2], the IC50 is 0.18 µM and the Ki was 0.02 µM. Besides, in data set [3], the Ki stood at 50.9 µM. For the same molecule, the Selectivity ratio in data set [4] amounted to 2310. Besides, the outcome in data set [5] was inactive.

For `CCOC(=O)/C(C#N)=C\Nc1ccc(-c2ccccc2)cc1`, the IC50 in data set [2] and in data set [3] was more than 500 µM throughout.

With `C/C(O)=C(\C#N)C(=O)Nc1ccc(C(F)(F)F)cc1`, the result in data set [5] was inactive.

Take `CCOC(=O)C(=CNc1ccccc1C)C(=O)OCC`: the inhibition in data set [1] is more than 10%. For the same molecule, the half-inhibitory concentration (IC50) in data set [2] came out at 346 µM; in data set [3] it was 292 µM. Moreover, the Ki in data set [2] is 39.7 µM; in data set [3], 35.9 µM. Also, the Selectivity ratio in data set [4] came to 1.

On to `Cc1c(C(=O)Nc2cc(Cl)cc(Cl)c2)cccc1[N+](=O)[O-]`, for which, in data set [2], the half-inhibitory concentration (IC50) came to 0.23 µM. The Ki in data set [2] stood at 0.03 µM; in data set [3] it was 64.4 µM. In addition, in data set [4], the Selectivity ratio is 2280. For the same molecule, in data set [5], the outcome was inactive.

B1: Dihydroorotate dehydrogenase (Plasmodium falciparum), Q54A96 (protein)
chain: T1 sequence (whole entry)
For the molecule B1, the Km in data set [6] was 13.4 µM; in data set [7], 31.4 µM.

Usually inhibition stands for the relative decrease from the control value, in per cent. A word on the IC50: it is the concentration at which inhibition is half-maximal. A word on the Ki: it is a measure of affinity in units of concentration, obtained from inhibition or displacement. For orientation: Km means the concentration of substrate that gives half-maximal velocity.
